Patent publication US7025067B2, “Activated charcoal filter for effectively reducing p-benzosemiquinone from the mainstream cigarette smoke” (Council of Scientific and Industrial Research, priority 2001, dated 2006)
Where two headings read alike, the source gives them in different places.

p-benzosemiquinone [p-BSQ]
half-life of p-BSQ (aqueous solution at pH 7.4): about 1.5 hours
half-life of p-BSQ (solid state at the room temperature): 48 h
